Measurements taken from patent publication US8541404B2, “Inhibitors of the human aldosterone synthase CYP11B2” (ElexoPharm GmbH, priority 2009, dated 2013).

How the values were obtained:
[1] = biological target: T1, steroid 11-β-hydroxylase CYP11B1 (hCYP11B1) (Homo sapiens, UniProt P15538); assay: Inhibition test in V79 MZh11B1 cells (test system B); format: cell-based; conditions: for % (0.5 μM) hCYP11B1: Table 2, percentage inhibition, inhibitor concentration 0.5 μM; for IC50: Table 1, V79 MZh11B1 cells, read-out: IC50 V79 11B1 hCYP11B1
T1 construct: expressed in transfected cells; host or cells: V79 MZh11B1 (V79 Chinese hamster cells)
T1 sequence (P15538 25-503): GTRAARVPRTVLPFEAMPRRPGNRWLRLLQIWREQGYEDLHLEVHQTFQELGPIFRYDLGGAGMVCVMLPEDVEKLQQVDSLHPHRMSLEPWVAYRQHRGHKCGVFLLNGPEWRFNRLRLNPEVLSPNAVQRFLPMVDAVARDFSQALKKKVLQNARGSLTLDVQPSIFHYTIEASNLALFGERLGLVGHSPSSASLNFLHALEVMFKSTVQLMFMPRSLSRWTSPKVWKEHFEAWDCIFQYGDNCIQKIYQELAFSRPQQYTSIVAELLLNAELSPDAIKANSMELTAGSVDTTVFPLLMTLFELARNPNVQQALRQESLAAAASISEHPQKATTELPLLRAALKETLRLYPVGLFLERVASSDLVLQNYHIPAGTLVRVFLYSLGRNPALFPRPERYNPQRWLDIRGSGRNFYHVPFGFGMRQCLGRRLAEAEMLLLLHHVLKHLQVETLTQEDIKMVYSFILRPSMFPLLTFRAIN
Experimental: (§1) Maintenance of the cells: V79 MZh11B2 and V79 MZh11B1, which recombinantly express human aldosterone synthase (CYP11B2) or steroid 11-β-hydroxylase CYP11B1) and were prepared according to Denner et al. (Denner, K. et al., Pharmacogenetics 5:89-96 (1995)), were cultured in cell culture dishes of 60 or 90 mm diameter in a CO2 incubator at 37° C. and in a water-saturated atmosphere containing 5% of CO2. Both cell lines were cultured in DMEM^+, which contained 10% of FCS and the antibiotics penicillin and streptomycin (1%) for protection from bacterial contamination. The cells were passaged every 2 to 3 days following treatment with trypsin/EDTA, since the doubling […], according to cell count, was 1 to 2 days. The cells were passaged up to 12 to 15 times in order to exclude possible cell changes. If needed, freshly thawed cells were employed.
(§2) Inhibition test: V79 MZh11B2- and V79 MZh11B1 cells (8·10^5 cells per well) were grown to confluence in 24-well cell culture plates with a 1.9 cm^2 culture area per hole (Nunc, Roskilde, Denmark). Before the test, the DMEM culture medium present was removed, and 450 μl of fresh DMEM with inhibitor were added to each hole in at least three different concentrations in order to determine the IC50 value. After preincubation (60 min, 37° C.), the reaction was started by the addition of 50 μl of DMEM containing 2.5 μl of a solution of the substrate 11-deoxycorticosterone (20 μM, containing 1.25 nCi of [4-^14C]11-deoxycorticosterone, in ethanol). The plate was then kept in the CO2 incubator at 37° C. and under 5% CO2. The V79 MZh11B1 cells were incubated for 120 min, the V79 MZh11B2 cells for 40 min. Controls not containing inhibitor were treated in the same manner. The enzyme reactions were stopped by extraction of the supernatant with 500 μl of EtOAc. The samples were centrifuged (10000×g, 2 min), and the solution was removed and evaporated. The residue was taken up in 10 μl of chloroform and analyzed by HPTLC (see below).
In the case of V79 MZh11B1, conversion was calculated analogously to equation 1, wherein: […]
(§3) The percentage inhibition which was caused by an inhibitor in the concentration employed in each case was calculated according to equation 2.
(§4) It was calculated by determining the percentage inhibition at least 3 different inhibitor concentrations, which must all lie in the linear range of the sigmoidal IC50 curve (log C/% inhibition). The calculation was carried out by linear regression. The values determined were only used if they formed a straight line at a probability r of >0.95.
(§5) The resuspended residue from example A) or B)—containing the radiolabeled steroids—was applied to an HPTLC plate (20×10 cm, silica gel 60F254) with a concentration zone (Merck, Darmstadt, Germany). The plate was developed twice using the mobile phase chloroform/methanol/water (300:20:1). Unlabeled […] and corticosterone were applied as a reference for the CYP11B1 reaction. For the CYP11B2 reaction, 11-deoxycorticosterone, corticosterone, 18-hydroxycorticosterone and aldosterone were used as a reference. The unlabeled references were detected at 260 nm. Subsequently, imaging plates (BAS MS2340, for ^14C samples, Raytest, Straubenhardt, Germany) were exposed for 48 h with the HPTLC plates. The imaging plates were scanned using the Phosphoimager system Fuji FLA 3000 (Raytest, Straubenhardt, Germany) and the steroids were quantified.

[2] = biological target: T2, human aldosterone synthase (CYP11B2) (Homo sapiens, UniProt P19099); assay: Test for CYP11B2 inhibitors in V79 MZh11B2 cells (test system B); format: cell-based; conditions: for IC50: Table 1, V79 MZh11B2 cells, read-out: IC50 V79 11B2 hCYP11B2; for inhibition at 0.5 µM: V79MZh11B2, Table 2, percentage inhibition, inhibitor concentration 0.5 μM, read-out: % (0.5 μM) hCYP11B2
T2 construct: expressed in transfected cells; host or cells: V79 MZh11B2 (V79 Chinese hamster cells)
T2 sequence (P19099 25-503): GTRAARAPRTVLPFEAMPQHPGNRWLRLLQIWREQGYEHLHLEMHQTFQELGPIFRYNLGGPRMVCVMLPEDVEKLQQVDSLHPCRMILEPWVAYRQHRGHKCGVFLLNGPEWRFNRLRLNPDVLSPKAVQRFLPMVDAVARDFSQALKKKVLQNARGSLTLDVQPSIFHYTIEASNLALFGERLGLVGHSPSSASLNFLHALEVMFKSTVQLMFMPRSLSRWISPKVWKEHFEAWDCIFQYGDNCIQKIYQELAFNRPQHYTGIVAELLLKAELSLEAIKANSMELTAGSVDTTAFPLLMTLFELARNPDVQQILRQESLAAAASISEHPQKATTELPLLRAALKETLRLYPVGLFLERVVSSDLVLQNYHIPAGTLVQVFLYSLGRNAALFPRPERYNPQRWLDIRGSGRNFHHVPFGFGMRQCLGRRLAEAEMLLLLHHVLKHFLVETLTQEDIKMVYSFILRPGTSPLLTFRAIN
Experimental: B) Test for CYP11B2 Inhibitors (V79 MZh Cells):
as §1, §2
For V79 MZh11B2, the conversion followed according to equation 3: […]
as §3, §4, §5

Row | SMILES | melting point | % (0.5 μM) hCYP11B1 [1] | IC50 [1] | IC50 [2] | inhibition at 0.5 µM [2]
1 | O=C1CSc2cc(-c3cccnc3)ccc2N1 [Example 14, 7-Pyridin-3-yl-4H-benzo[1,4]thiazin-3-one] | 240 °C | 49% |  |  | 
2 | O=C1CCc2cc(-c3cccnc3)cc(Cl)c2N1 [Example 12, 8-Chloro-6-pyridin-3-yl-3,4-dihydro-1H-quinolin-2-one] | 178 °C |  | 1670 nM | 3.8 nM | 
3 | O=C1CCc2cc(-c3cccnc3)ccc2N1 [Example 1, 6-Pyridin-3-yl-3,4-dihydro-1H-quinolin-2-one] | 189 °C |  | 6750 nM | 28 nM | 
4 | COc1cncc(-c2ccc3c(c2)CCC(=O)N3C)c1 [Example 6, 6-(5-Methoxypyridin-3-yl)-1-methyl-3,4-dihydro-1H-quinolin-2-one] | 159 °C |  | 87 nM | 0.2 nM | 
5 | O=C1CCc2cc(-n3ccnc3)cc3c2N1CC3 [Example 28, 8-Imidazol-1-yl-1,2,5,6-tetrahydro-pyrrolo[3,2,1-ij]quinolin-4-one] | 124 °C | 24% |  |  | 87%
6 | CN1C(=O)CCc2cc(-c3cncc4ccccc34)ccc21 [Example 7, 6-Isoquinolin-4-yl-1-methyl-3,4-dihydro-1H-quinolin-2-one] | 176 °C | 97% |  |  | 
7 | COc1cncc(-c2cc3c4c(c2)CCC(=O)N4CCC3)c1 [Example 19, 9-(5-Methoxypyridin-3-yl)-1,2,6,7-tetrahydro-5H-pyrido[3,2,1-ij]quinolin-3-one] | 150 °C | 51% |  |  | 95%
8 | S=C1CCc2cc(-c3cccnc3)ccc2N1 [Example 8, 6-Pyridin-3-yl-3,4-dihydro-1H-quinoline-2-thione] | 267 °C | 49% |  |  | 
9 | CCN1C(=O)CCc2cc(-c3cccnc3)ccc21 [Example 9, 1-Ethyl-6-pyridin-3-yl-3,4-dihydro-1H-quinolin-2-one] | 91 °C |  | 5970 nM | 21 nM | 
